How the values were obtained:
delF508-CFTR [1] = target: T1, delF508-CFTR (Homo sapiens, UniProt P13569, DEL508-508); assay: Patch-clamp recording of delF508-CFTR currents in excised inside-out patches of transfected CHO cells; type: cell-based
Source text: Patch-clamp is considered the gold standard for assessing directly ion channel function in real time. By attaching a glass microelectrode on the surface of a cell, it is possible to record the currents generated by channels proteins that are present in this tiny “patch” of cell membranes. Since millions of ions pass through a single ion channel pore per second, the resulting microscopic currents from a single channel protein molecule can be detected with modem patch-clamp amplifiers. As ion channels (a conductor in electricity term) are arranged in parallel in the cell membrane, it is also possible to assay a group of ion channels by monitoring macroscopic currents representing the sum of currents from individual channels. Microscopic recordings allow artisans to examine exquisitely the effects of compounds on the Po and kinetic parameters of CFTR channels; whereas macroscopic recordings provide an assay not only to quantify the overall effects of compounds on N×Po×i, but also monitor the stability of the CFTR currents in real time.
Chinese hamster ovary (CHO) cells were grown at 37° C. in Dulbecco's modified Eagle's medium supplemented with 10% fetal bovine serum. Cells were subcultured into 35-mm tissue culture dishes 1 day before transfection. PolyFect transfection reagent (QIAGEN) was used to cotransfect CFTR cDNA and pEGFP-C3 (Takara Bio Inc.), which encodes green fluorescence proteins, into CHO cells. After transfection, cells were incubated at 27° C. for at least 2 days before electrophysiological experiments were performed.
Glass chips carrying the transfected cells were transferred to a chamber located on the stage of an inverted microscope (IX51; Olympus). Borosilicate capillary glasses were used to make patch pipettes using a two-stage micropipette puller (PP-81, Narishige, Japan). The pipettes were polished with a homemade microforge to a resistance of 2-4 MΩ in the bath solution. Once the seal resistance reached >40 GΩ, membrane patches were excised into an inside-out mode. Subsequently, the pipette was moved to the outlet of a three-barrel perfusion system and perfused with 25 IU PKA and 2 mM ATP until the CFTR current reached a steady state. A patch-clamp amplifier (EPC10, HEKA, Germany) was used to record electrophysiological data at room temperature. The data were filtered online at 100 Hz with an eight-pole Bessel filter (LPF-8; Warner Instruments) and digitized to a computer at a sampling rate of 500 Hz. […] Membrane potential was held at −30 or −50 mV for all recordings.
Disease-causing mutations (G551D and delF508) were made with PCR-based site-directed mutagenesis using the Pfu Ultra II (Agilent Technologies). […] The cDNA constructs of CFTR (G551D and delF508) were co-transfected with peGFP-C3 (Takara Bio Inc.) encoding the green fluorescent protein into CHO cells using PolyFect transfection reagent (QIAGEN). The transfected cells were transferred into 35 mm tissue culture dishes containing one layer of sterilized glass chips for cells to grow on. The transfected cells were incubated at 27° C. for 2-7 days before electrophysiological experiments were performed.
All patch-clamp experiments were carried out in the excised inside-out configuration. Micropipettes made of borosilicate capillary glass were pulled with a two-stage vertical puller (Narishige) and then fire-polished with a homemade microforge to reach a pipet resistance of 2-4 MΩ when the pipettes were filled with a standard inside-out pipet solution that contains: 140 mM N-Methyl-D-glucamine-Cl (NMDG-Cl), 2 mM MgCl2, 5 mM CaCl2) and 10 mM HEPES, adjusted to pH 7.4 with NMDG.

delF508-CFTR [2] = target: T1, delF508-CFTR; design: delF508 stably-transfected C127 cells were cultured in DMEM with 10% FBS in 6-well plates; expressed in transfected cells; host or cells: C127 cells stably expressing delF508-CFTR; settings: Kopeikin et al., J. Cys. Fibro. 2014; cited from earlier work

T1 sequence (P13569 with tags, fused parts or gaps DEL508-508): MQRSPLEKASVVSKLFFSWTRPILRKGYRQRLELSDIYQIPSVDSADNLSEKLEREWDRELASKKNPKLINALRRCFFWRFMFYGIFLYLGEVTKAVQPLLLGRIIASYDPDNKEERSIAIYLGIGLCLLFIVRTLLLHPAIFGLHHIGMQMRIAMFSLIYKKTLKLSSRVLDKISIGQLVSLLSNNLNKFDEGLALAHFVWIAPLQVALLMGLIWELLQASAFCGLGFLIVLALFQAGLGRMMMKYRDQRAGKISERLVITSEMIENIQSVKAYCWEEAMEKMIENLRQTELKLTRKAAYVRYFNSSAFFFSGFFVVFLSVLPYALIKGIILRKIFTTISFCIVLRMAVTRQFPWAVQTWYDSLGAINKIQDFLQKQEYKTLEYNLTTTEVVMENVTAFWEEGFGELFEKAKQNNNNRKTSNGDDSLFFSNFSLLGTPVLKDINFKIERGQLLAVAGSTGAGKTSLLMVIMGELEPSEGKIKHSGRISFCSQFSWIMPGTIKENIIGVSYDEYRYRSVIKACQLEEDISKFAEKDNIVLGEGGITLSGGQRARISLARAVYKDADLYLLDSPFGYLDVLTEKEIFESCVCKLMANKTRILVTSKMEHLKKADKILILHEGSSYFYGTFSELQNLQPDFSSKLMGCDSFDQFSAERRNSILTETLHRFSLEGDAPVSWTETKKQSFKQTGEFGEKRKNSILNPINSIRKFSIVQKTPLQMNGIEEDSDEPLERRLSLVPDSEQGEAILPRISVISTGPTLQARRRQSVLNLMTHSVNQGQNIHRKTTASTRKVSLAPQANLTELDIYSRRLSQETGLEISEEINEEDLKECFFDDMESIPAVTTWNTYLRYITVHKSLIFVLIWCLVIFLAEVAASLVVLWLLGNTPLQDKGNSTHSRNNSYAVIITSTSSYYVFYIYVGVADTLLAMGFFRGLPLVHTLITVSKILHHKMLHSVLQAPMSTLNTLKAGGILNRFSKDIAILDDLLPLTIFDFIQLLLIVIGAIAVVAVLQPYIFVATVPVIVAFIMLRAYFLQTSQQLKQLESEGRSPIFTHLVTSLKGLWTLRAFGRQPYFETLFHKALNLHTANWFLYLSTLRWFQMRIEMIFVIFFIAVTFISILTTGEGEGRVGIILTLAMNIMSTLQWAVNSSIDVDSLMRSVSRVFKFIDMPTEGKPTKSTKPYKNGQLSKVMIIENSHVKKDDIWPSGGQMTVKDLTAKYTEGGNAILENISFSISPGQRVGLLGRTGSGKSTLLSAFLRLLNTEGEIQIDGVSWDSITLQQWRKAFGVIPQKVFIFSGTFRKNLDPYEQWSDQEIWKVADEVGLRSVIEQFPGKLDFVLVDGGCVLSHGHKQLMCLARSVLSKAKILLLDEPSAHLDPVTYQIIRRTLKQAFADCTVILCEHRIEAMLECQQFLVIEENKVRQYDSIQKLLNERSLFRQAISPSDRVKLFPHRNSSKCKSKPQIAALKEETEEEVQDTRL

In the case of `CC(C)(C)c1cc(C(C)(C)C)c(NC(=O)c2c[nH]c3ccccc3c2=O)cc1O` [VX-770, Ivacaftor, reference compound], the “fold increase of mean delF508-CFTR current” value (delF508-CFTR [1]; 200 nM VX-770 alone) is listed as ~10 folds, the “rundown of delF508-CFTR current in the presence of the compound” value (delF508-CFTR [1]; real-time current trace, FIG. 10) is listed as “immediately starts to decline” and the “Po of delF508-CFTR in the presence of Ivacaftor” value (delF508-CFTR [2]) is listed as “above 0.4”.

From US20190210973A1, “COMPOUNDS AND METHODS FOR TREATMENT OF CYSTIC FIBROSIS” (The Curators of the University of Missouri, priority 2018, published 2019)
